pEC50: −log10 of the molar value. Read-outs that look alike come from different tables or passages of the source.
Columns and labels:
5-HT1A receptor [1] = target: T1, 5-HT1A receptor (Homo sapiens, UniProt P08908); settings: for voltage dependence of potency: −80 mV versus +40 mV
T1 sequence (P08908 1-422): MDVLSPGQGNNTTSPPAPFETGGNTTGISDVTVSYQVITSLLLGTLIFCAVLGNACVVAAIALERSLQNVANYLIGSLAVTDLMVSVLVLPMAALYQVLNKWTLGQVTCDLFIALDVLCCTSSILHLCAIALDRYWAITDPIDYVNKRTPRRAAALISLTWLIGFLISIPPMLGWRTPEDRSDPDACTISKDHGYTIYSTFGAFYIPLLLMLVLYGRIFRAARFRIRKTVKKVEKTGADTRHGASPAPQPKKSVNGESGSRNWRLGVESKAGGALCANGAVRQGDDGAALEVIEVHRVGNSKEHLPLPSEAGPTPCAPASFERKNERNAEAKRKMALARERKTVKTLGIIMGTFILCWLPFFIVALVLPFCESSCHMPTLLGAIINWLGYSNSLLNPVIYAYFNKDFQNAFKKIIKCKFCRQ

5-HT1A receptor [2] = target: T1, 5-HT1A receptor; test: cell-based; set-up: Emax: dose or concentration left out as unconfirmed; settings: for pEC50: EC50 (activation of receptor-mediated GIRK current), wt receptor, 72 mM Na+ solution

| SMILES | effect of removal of extracellular Na+ on maximal I5-HT (5-HT1A receptor [1]; 5 μM 5-HT, Na+-free versus 72 mM Na+) | decrease of potency by depolarization (5-HT1A receptor [1]; +40 mV versus −80 mV, 72 mM Na+) | voltage dependence of potency (5-HT1A receptor [1]) | Emax (5-HT1A receptor [2]; read-out: maximal response relative to the maximal response produced by 5-HT) | pEC50 (5-HT1A receptor [2]; holding potential +40 mV) | pEC50 (5-HT1A receptor [2]; holding potential −80 mV) | Emax (5-HT1A receptor [2]; read-out: maximal response relative to the maximal response evoked by 5-HT at the same oocytes) |
| --- | --- | --- | --- | --- | --- | --- | --- |
| NCCc1c[nH]c2ccc(O)cc12 [5-HT, 5-hydroxytryptamine] | did not affect the maximal current | more than 20 fold | – | – | – | – | – |
| O=C1CC2(CCCC2)CC(=O)N1CCCCN1CCN(c2ncccn2)CC1 [buspirone] | – | – | not voltage dependent | ~42% | – | – | – |
| O=C1[C@@H]2[C@H]3CC[C@H](C3)[C@@H]2C(=O)N1CCCCN1CCN(c2ncccn2)CC1 [tandospirone] | – | – | voltage-dependent | – | 6.03 | 6.71 | ~55% |
